Results on 33 compounds are retold here after patent US8637550B2, “Heteroaryl diamide compounds useful as MMP-13 inhibitors” (Boehringer Ingelheim International GmbH, priority 2008, dated 2014).

pIC50: −log10 of the molar value.

The test deals with MMP-13 (Homo sapiens, UniProt P45452). Description: EnzoLyte 520 Generic MMP Assay Kit, 5-FAM/QXL520 FRET peptide substrate. Type of test: biochemical. An excerpt: The EnzoLyte™ 520 Generic MMP Assay Kit (AnaSpec Inc.) can detect the activity of several MMPs including MMP-1, 2, 3, 7, 8, 9, 13, and 14. This kit uses a 5-FAM/QXL™520 fluorescence resonance energy transfer (FRET) peptide as an MMP substrate.
In turn, `CNC(=O)[C@@H](NC(=O)c1ccc(-c2ccc(NC(=O)c3ccnn3C)cc2)o1)C1CCCCC1` [N-[4-(5-{[(1S)-1-cyclohexyl-2-(methylamino)-2-oxoethyl]carbamoyl}furan-2-yl)phenyl]-1-methyl-1H-pyrazole-5-carboxamide] gave a pIC50 of 7.00. Under `CNC(=O)[C@@H](NC(=O)c1ccc(-c2ccc(NC(=O)c3occc3C)cc2)o1)C1CCCCC1` [N-[4-(5-{[(1S)-1-cyclohexyl-2-(methylamino)-2-oxoethyl]carbamoyl}furan-2-yl)phenyl]-3-methylfuran-2-carboxamide] stands 7.03; under `CNC(=O)[C@@H](NC(=O)c1ccc(-c2ccc(NC(=O)c3cc(C)c(C)o3)cc2)o1)C1CCCCC1` [N-[4-(5-{[(1S)-1-cyclohexyl-2-(methylamino)-2-oxoethyl]carbamoyl}furan-2-yl)phenyl]-4,5-dimethylfuran-2-carboxamide], 7.20; under `CNC(=O)[C@@H](NC(=O)c1ccc(-c2ccc(NC(=O)c3cc(C)[nH]n3)cc2)o1)C1CCCCC1` [N-[4-(5-{[(1S)-1-cyclohexyl-2-(methylamino)-2-oxoethyl]carbamoyl}furan-2-yl)phenyl]-5-methyl-1H-pyrazole-3-carboxamide], 7.06.

`CNC(=O)[C@@H](NC(=O)c1ccc(-c2ccc(NC(=O)c3ccc(C)o3)cc2)o1)C1CCCCC1` [N-[4-(5-{[(1S)-1-cyclohexyl-2-(methylamino)-2-oxoethyl]carbamoyl}furan-2-yl)phenyl]-5-methylfuran-2-carboxamide] had a pIC50 of 7.24. Then `CNC(=O)[C@@H](NC(=O)c1ccc(-c2ccc(NC(=O)c3cn4c(C)cccc4n3)cc2)o1)C1CCCCC1` [N-[4-(5-{[(1S)-1-cyclohexyl-2-(methylamino)-2-oxoethyl]carbamoyl}furan-2-yl)phenyl]-5-methylimidazo[1,2-a]pyridine-2-carboxamide], with 6.82. Under `CNC(=O)[C@@H](NC(=O)c1ccc(-c2ccc(NC(=O)c3cncc(C)c3)cc2)o1)C1CCCCC1` [N-[4-(5-{[(1S)-1-cyclohexyl-2-(methylamino)-2-oxoethyl]carbamoyl}furan-2-yl)phenyl]-5-methylpyridine-3-carboxamide] stands 6.82; under `CNC(=O)[C@@H](NC(=O)c1ccc(-c2ccc(NC(=O)c3cccc(C)n3)cc2)o1)C1CCCCC1` [N-[4-(5-{[(1S)-1-cyclohexyl-2-(methylamino)-2-oxoethyl]carbamoyl}furan-2-yl)phenyl]-6-methylpyridine-2-carboxamide], 7.77. Then `CNC(=O)[C@@H](NC(=O)c1ccc(-c2ccc(NC(=O)c3cn4cccc(C)c4n3)cc2)o1)C1CCCCC1` [N-[4-(5-{[(1S)-1-cyclohexyl-2-(methylamino)-2-oxoethyl]carbamoyl}furan-2-yl)phenyl]-8-methylimidazo[1,2-a]pyridine-2-carboxamide], with 7.00; and `CNC(=O)[C@@H](NC(=O)c1ccc(-c2ccc(NC(=O)c3cn4ccccc4n3)cc2)o1)C1CCCCC1` [N-[4-(5-{[(1S)-1-cyclohexyl-2-(methylamino)-2-oxoethyl]carbamoyl}furan-2-yl)phenyl]imidazo[1,2-a]pyridine-2-carboxamide], with 6.96; and `Cc1cccc(C(=O)Nc2ccc(-c3ccc(C(=O)N[C@H](C(=O)NC[C@@H](C)O)C4CCCCC4)o3)cc2)n1` [N-[4-(5-{[(1S)-1-cyclohexyl-2-{[(2R)-2-hydroxypropyl]amino}-2-oxoethyl]carbamoyl}furan-2-yl)phenyl]-6-methylpyridine-2-carboxamide], with 7.66.

As for `COC[C@H](C)NC(=O)[C@@H](NC(=O)c1ccc(-c2ccc(NC(=O)c3cccc(C)n3)cc2)o1)C1CCCCC1` [N-[4-(5-{[(1S)-1-cyclohexyl-2-{[(2S)-1-methoxypropan-2-yl]amino}-2-oxoethyl]carbamoyl}furan-2-yl)phenyl]-6-methylpyridine-2-carboxamide], the pIC50 is 7.49.

Compound `Cc1cccc(C(=O)Nc2ccc(-c3ccc(C(=O)N[C@H](C(=O)NC[C@H](C)O)C4CCCCC4)o3)cc2)n1` [N-[4-(5-{[(1S)-1-cyclohexyl-2-{[(2S)-2-hydroxypropyl]amino}-2-oxoethyl]carbamoyl}furan-2-yl)phenyl]-6-methylpyridine-2-carboxamide] had a pIC50 of 7.64. Then `CNC(=O)[C@@H](NC(=O)c1ccc(-c2ccc(NC(=O)c3cccc(C)n3)cc2)o1)C1CC1` [N-[4-(5-{[(1S)-1-cyclopropyl-2-(methylamino)-2-oxoethyl]carbamoyl}furan-2-yl)phenyl]-6-methylpyridine-2-carboxamide], with 7.16; and `CNC(=O)[C@@H](NC(=O)c1ccc(-c2ccc(NC(=O)c3cc4ccccc4o3)cn2)o1)C1CCCCC1` [N-[6-(5-{[(1S)-1-cyclohexyl-2-(methylamino)-2-oxoethyl]carbamoyl}furan-2-yl)pyridin-3-yl]-1-benzofuran-2-carboxamide], with 7.52. Under `CNC(=O)[C@@H](NC(=O)c1ccc(-c2ccc(NC(=O)c3cccc(C)n3)cn2)o1)C1CCCCC1` [N-[6-(5-{[(1S)-1-cyclohexyl-2-(methylamino)-2-oxoethyl]carbamoyl}furan-2-yl)pyridin-3-yl]-6-methylpyridine-2-carboxamide] stands 8.15; under `CNC(=O)[C@@H](NC(=O)c1ccc(-c2ccc([N+](=O)[O-])cc2)o1)C1CCCCC1` [N-[(1S)-1-cyclohexyl-2-(methylamino)-2-oxoethyl)-5-(4-nitrophenyl)furan-2-carboxamide], 6.33; under `CNC(=O)[C@@H](NC(=O)c1ccc(-c2ccc([N+](=O)[O-])cn2)o1)C1CCCCC1` [N-[(1S)-1-cyclohexyl-2-(methylamino)-2-oxoethyl)-5-(5-nitropyridin-2-yl)furan-2-carboxamide], 7.13.

Take `CNC(=O)[C@@H](NC(=O)c1ccc(-c2cccc(CNC(=O)C(C)C)c2)o1)C1CCCCC1` [N-[(1S)-1-cyclohexyl-2-(methylamino)-2-oxoethyl]-5-(3-{[(2-methylpropanoyl)amino]methyl}phenyl)furan-2-carboxamide]: the pIC50 was 6.80. Then `CNC(=O)[C@@H](NC(=O)c1ccc(-c2cccc(CNC(=O)C3CC3)c2)o1)C1CCCCC1` [N-[(1S)-1-cyclohexyl-2-(methylamino)-2-oxoethyl]-5-(3-{[(cyclopropylcarbonyl)amino]methyl}phenyl)furan-2-carboxamide], with 6.40. Take `CNC(=O)[C@@H](NC(=O)c1ccc(-c2cccc(CNC(=O)c3ccco3)c2)o1)C1CCCCC1` [N-[(1S)-1-cyclohexyl-2-(methylamino)-2-oxoethyl]-5-(3-{[(furan-2-ylcarbonyl)amino]methyl}phenyl)furan-2-carboxamide]: the pIC50 is 7.12. Under `CNC(=O)[C@@H](NC(=O)c1ccc(-c2cccc(CNC(=O)NC(C)C)c2)o1)C1CCCCC1` [N-[(1S)-1-cyclohexyl-2-(methylamino)-2-oxoethyl]-5-(3-{[(propan-2-ylcarbamoyl)amino]methyl}phenyl)furan-2-carboxamide] stands 6.69; under `CCOc1ccc(-c2ccc(C(=O)N[C@H](C(=O)NC)C3CCCCC3)o2)cc1` [N-[(1S)-1-cyclohexyl-2-(methylamino)-2-oxoethyl]-5-(4-ethoxyphenyl)furan-2-carboxamide], 6.57. Under `CCc1ccc(-c2ccc(C(=O)N[C@H](C(=O)NC)C3CCCCC3)o2)cc1` [N-[(1S)-1-cyclohexyl-2-(methylamino)-2-oxoethyl]-5-(4-ethylphenyl)furan-2-carboxamide] stands 6.50; under `CNC(=O)[C@@H](NC(=O)c1ccc(-c2ccc(C)cc2)o1)C1CCCCC1` [N-[(1S)-1-cyclohexyl-2-(methylamino)-2-oxoethyl]-5-(4-methylphenyl)furan-2-carboxamide], 6.54. Under `CNC(=O)[C@@H](NC(=O)c1ccc(-c2ccc(CNC(=O)C3CC3)cc2)o1)C1CCCCC1` [N-[(1S)-1-cyclohexyl-2-(methylamino)-2-oxoethyl]-5-(4-{[(cyclopropylcarbonyl)amino]methyl}phenyl)furan-2-carboxamide] stands 6.37; under `CCOc1ccc(-c2ccc(C(=O)N[C@H](C(=O)NC)C3CCCCC3)o2)nc1` [N-[(1S)-1-cyclohexyl-2-(methylamino)-2-oxoethyl]-5-(5-ethoxypyridin-2-yl)furan-2-carboxamide], 7.49. Take `CNC(=O)[C@@H](NC(=O)c1ccc(-c2cccc(CNC(=O)c3ccoc3C)c2)o1)C1CCCCC1` [N-[(1S)-1-cyclohexyl-2-(methylamino)-2-oxoethyl]-5-[3-({[(2-methylfuran-3-yl)carbonyl]amino}methyl)phenyl]furan-2-carboxamide]: the pIC50 was 6.48.

Turning to `CNC(=O)[C@@H](NC(=O)c1ccc(-c2cccc(CNC(=O)c3cc(C)c(C)s3)c2)o1)C1CCCCC1` [N-[(1S)-1-cyclohexyl-2-(methylamino)-2-oxoethyl]-5-[3-({[(4,5-dimethylthiophen-2-yl)carbonyl]amino}methyl)phenyl]furan-2-carboxamide], the pIC50 is 7.30. Turning to `CNC(=O)[C@@H](NC(=O)c1ccc(-c2ccc(-c3cnn(C)c3)cc2)o1)C1CCCCC1` [N-[(1S)-1-cyclohexyl-2-(methylamino)-2-oxoethyl]-5-[4-(1-methyl-1H-pyrazol-4-yl)phenyl]furan-2-carboxamide], the pIC50 was 7.60. Under `CNC(=O)[C@@H](NC(=O)c1ccc(-c2ccc(S(=O)(=O)NC)cc2)o1)C1CCCCC1` [N-[(1S)-1-cyclohexyl-2-(methylamino)-2-oxoethyl]-5-[4-(methylsulfamoyl)phenyl]furan-2-carboxamide] stands 6.32. Then `CNC(=O)[C@@H](NC(=O)c1ccc(-c2ccc(SC)cc2)o1)C1CCCCC1` [N-[(1S)-1-cyclohexyl-2-(methylamino)-2-oxoethyl]-5-[4-(methylsulfanyl)phenyl]furan-2-carboxamide], with 6.76; and `CNC(=O)[C@@H](NC(=O)c1ccc(-c2ccc(OCc3ccn[nH]3)cn2)o1)C1CCCCC1` [N-[(1S)-1-cyclohexyl-2-(methylamino)-2-oxoethyl]-5-[5-(1H-pyrazol-5-ylmethoxy)pyridin-2-yl]furan-2-carboxamide], with 8.22.

For orientation: pIC50 means the negative decadic logarithm of the IC50, by convention in mol/L.
